Measurements taken from ChEMBL document CHEMBL3886716, “Methods of modulating the activity of the MC5 receptor and treatment of conditions related to this receptor” (2016).

Target: Melanocortin receptor 5 (Homo sapiens, UniProt P33032)
Assay: Radioligand Binding Assay: Assessments of compound binding to human MC5R (hMC5R)) by displacement of an 125I-labeled NDP-MSH receptor ligand peptide were performed essentially as described in the data sheets produced by Perkin Elmer to accompany their frozen hMC5R membranes (Perkin Elmer catalog number RBXMC5M400UA). [125I] NDP-MSH: Radiolabeled in House and Purified by HPLC: Na125I (0.5 mCi, 17.4 Ci/mg) was added to 50 μL sodium phosphate (50 mM, pH 7.4) in an eppendorf tube precoated with IODOGEN. After incubation for 10 mins the phosphate buffer containing the iodine was added to NDP-MSH (10 μl at 1 mg/mL) in a separate eppendorf tube. This was incubated for a further 10 mins. The iodinated NDP-MSH was purified by HPLC on a Zorbax SB 300 column using solvent A: 0.05% TFA and solvent B: 90% acetonitrile 0.045% TFA with a linear gradient, 0-67% B over 60 mins. The 125I NDP-MSH eluted at 52 mins after the unlabeled starting material (48 min) and was counted and stored in the freezer. […] Incubation buffer: 25 mM HEPES-KOH (pH 7.0), 1.5 mM CaCl2, 1 mM MgSO4, 0.1 M NaCl, 1 mM 1,10-phenanthroline, and 1 Complete™ protease inhibitor tablet/100 mL (Roche, catalog number 1873580). Perkin Elmer frozen hMC5 membranes: catalog number RBXMC5M400UA, 0.4 mL/vial; 400 microassays/vial, 0.78 mg/mL protein concentration. Vials of frozen membranes were thawed rapidly immediately before use, diluted with binding buffer and vortexed. Resuspended membranes were kept on ice until they were added to the wells of the plate. Assays were performed in 96 well polypropylene plates. […] This was incubated for 1 hr at 37° C.

Chain of Melanocortin receptor 5 (P33032 whole entry): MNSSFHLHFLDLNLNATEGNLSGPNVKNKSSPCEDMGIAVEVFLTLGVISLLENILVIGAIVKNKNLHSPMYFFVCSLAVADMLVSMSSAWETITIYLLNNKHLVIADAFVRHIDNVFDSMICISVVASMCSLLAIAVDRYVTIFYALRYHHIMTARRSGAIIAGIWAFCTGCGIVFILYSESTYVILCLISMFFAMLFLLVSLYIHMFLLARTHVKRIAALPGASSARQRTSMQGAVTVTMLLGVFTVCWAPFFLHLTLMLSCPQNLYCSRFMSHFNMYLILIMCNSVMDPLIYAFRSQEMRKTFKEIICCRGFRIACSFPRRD

SMILES | IC50
N=C(N)NCCC[C@@H]1N[C@H](CNC(=O)c2cccc(Oc3ccccc3)c2)CCN(CC(c2ccccc2)c2ccccc2)C1=O | < 100 nM
N=C(N)NCCC[C@@H]1N[C@H](CNC(=O)c2ccc3ccccc3c2)CCN(CCc2ccc(Cl)cc2Cl)C1=O | < 1000 nM
N=C(N)NCCC[C@@H]1N[C@H](CNC(=O)c2ccc3ccccc3c2)CCN(CCc2ccc(Cl)c(Cl)c2)C1=O | < 10000 nM

The next lines start with the values.

IC50 | SMILES
< 100 nM | N=C(N)NCCC[C@@H]1N[C@H](CNC(=O)/C=C/c2ccc(Cl)cc2)CCN(CC(c2ccccc2)c2ccccc2)C1=O
< 100 nM | N=C(N)NCCC[C@@H]1N[C@H](CNC(=O)c2ccc3cc(O)ccc3c2)CCN(CC(c2ccccc2)c2ccccc2)C1=O
< 1000 nM | O=C(/C=C/c1ccc(Cl)cc1)NC[C@@H]1CCN(CC(c2ccccc2)c2ccccc2)C(=O)[C@H](CC2CCCCC2)N1
< 1000 nM | N=C(N)NCCC[C@@H]1N[C@H](CNC(=O)c2ccc(Oc3ccccc3)cc2)CCN(CC(c2ccccc2)c2ccccc2)C1=O
